Reference: patent publication US10487081B2, “Guanidine substituted imidazo[4,5-c] ring compounds” (3M INNOVATIVE PROPERTIES COMPANY, priority 2015, dated 2019)
Where a name gives a salt, the structure may show the parent alone. Read-outs that look alike come from different tables or passages of the source.

Tests used:
[1] = test system: Human peripheral blood mononuclear cells (PBMC); assay: Cytokine Induction in Human Cells; assay type: cell-based; conditions: 21-24 hrs culture, lowest concentration giving at least 2x negative control, tested 0.0001-10 micromolar
Experimental: Cytokine Induction in Human Cells
Whole blood was obtained from healthy human donors and collected by venipuncture into vacutainer tubes or syringes containing EDTA. Human peripheral blood mononuclear cells (PBMC) were purified from the whole blood by density gradient centrifugation. Histopaque 1077 (15 mL, Sigma, St. Louis, Mo.) was transferred to 6×50 mL sterile polypropylene conical tubes. The Histopaque was overlayed with 15-25 mL of blood diluted 1:2 in Hank's Balanced Salts Solution (HBSS) (Gibco, Life Technology, Grand Island N.Y.). The tubes were then centrifuged at 1370 rpm for 30 minutes at 20° C., with no brake (400×g, GH 3.8A Rotor).
The interface (buffy coat) containing the PBMC was collected and placed in a new sterile 50 mL conical polypropylene centrifuge tube. The PBMC were mixed with an equal volume of HBSS (about 20 mL from the interface and about 20 mL of HBSS), and then centrifuged at 1090 rpm, 10 min, 20° C., with brake (270×g, GH 3.8A Rotor). After completing centrifugation, the cells were resuspended in 2-3 mL ACK Red blood cell lysis buffer (ammonium chloride potassium solution, Gibco, Life Technology) and incubated for 2-5 minutes at 20° C. Next, HBSS (40 mL) was added to the cells, and the sample was centrifuged at 270×g for 10 min at 20° C. The supernatant was decanted, and the cell pellet was resuspended in 5 mL AIM V® Medium (Gibco, Life Technology). Cell aggregates and debris were removed by filtering the cell solution through a BD Falcon 70 micron nylon cell strainer (BD Biosciences, San Jose, Calif.).
The number of viable cells were determined by counting with a Miltenyi FACS instrument (Miltenyi Biotec Inc., San Diego, Calif.) or by using a hemacytometer. For determining cell viability with a hemacytometer, the cells were diluted 1/10 in 0.4% trypan blue and HBSS (specifically, 50 microliter of trypan blue+40 microliter of HBSS+10 microliter of cell solution were added to a microfuge tube and mixed). Ten microliters of the diluted cells were then applied to the hemacytometer, and the number of viable PBMC were determined by microscopy.
The PBMC sample was then resuspended in 96-well plates at a concentration of 8×10^5 cells/well in 0.1 mL of AIM-V medium. Each compound was solubilized in DMSO to create a 3 mM stock solution. The stock solution was then further diluted with AIM-V medium to prepare the serial dilutions. The diluted compound (100 microliters) was then transferred to the PBMCs to achieve final compound concentrations of 10, 1, 0.1, 0.01, 0.001, 0.0001 micromolar. The plates also had both positive and negative controls. The negative control wells contained only AIM-V medium with no example compound. The positive control wells contained imiquimod serially diluted to concentrations of 10, 1, 0.1, 0.01, 0.001, 0.0001 micromolar. The plates were then cultured at 37° C./5% CO2 for 21-24 hrs. Cell-free supernatants were harvested by centrifuging the 96-well plates at 2100 rpm, 23° C. for 10 minutes. Approximately 160 microliter of the supernatant was then stored in a NUNC 96-well plate, covered with the compression cap and stored at −80° C. until the cytokine analysis was done.
IFN-alpha cytokine levels (pg/mL) were measured by ELISA (human IFN-α, pan specific, Mabtech, Cincinnati, Ohio), IFN-gamma, TNF-alpha, and IP-10 cytokine levels (pg/mL) were measured by multiplex bead assay (magnetic beads, R & D Systems Minneapolis, Minn.) according to the manufacturer's instructions.
Specifically, the minimum effective concentration of each compound (micromolar) was determined as the lowest concentration of the compound that induced a measured cytokine response at a level ([…]) that was at least 2× greater than that observed with the negative control wells.

[2] = ELISA, read-out: MEC to Induce Cytokine IFN-alpha
[3] = multiplex bead assay, read-out: MEC to Induce Cytokine TNF-alpha

SMILES | melting point [°C] | minimal effective concentration [1, 2] [µM] | minimal effective concentration [1, 3] [µM] | MEC to Induce Cytokine IP-10 ([1]; multiplex bead assay) [µM] | MEC to Induce Cytokine IFN-gamma ([1]; multiplex bead assay) [µM]
Cc1nc2c(N)nc3ccccc3c2n1CCCCNC(=N)N (as salt: hydrochloride) [Example 1, 1-[4-(4-amino-2-methyl-imidazo[4,5-c]quinolin-1-yl)butyl]guanidine dihydrochloride] | 234 to 244 |  |  |  | 
CCCc1nc2c(N)nc3ccccc3c2n1CCCCNC(=N)N (as salt: hydrochloride) [Example 3, 1-[4-(4-amino-2-propyl-imidazo[4,5-c]quinolin-1-yl)butyl]guanidine hydrochloride] | 156 to 158 |  |  |  | 
CCCCc1nc2c(N)nc3ccccc3c2n1CCCCNC(=N)N (as salt: hydrochloride) [Example 4, 1-[4-(4-amino-2-butyl-imidazo[4,5-c]quinolin-1-yl)butyl]guanidine hydrochloride] | 237 to 238 |  |  |  | 
COCCc1nc2c(N)nc3ccccc3c2n1CCOCCNC(=N)N (as salt: hydrochloride) [Example 6, 1-[2-[2-[4-amino-2-(2-methoxyethyl)imidazo[4,5-c]quinolin-1-yl]ethoxy]ethyl]guanidine dihydrochloride] | 188 to 192 |  |  |  | 
CCCCCc1nc2c(N)nc3c(c2n1CCCCNC(=N)N)CCCC3 (as salt: hydrochloride) [Example 7, 1-[4-(4-amino-2-pentyl-6,7,8,9-tetrahydroimidazo[4,5-c]quinolin-1-yl)butyl]guanidine hydrochloride] | 178 to 180 |  |  |  | 
COCCc1nc2c(N)nc3ccccc3c2n1CC(C)(C)CNC(=N)N (as salt: hydrochloride) [Example 8, 1-[3-[4-amino-2-(2-methoxyethyl)imidazo[4,5-c]quinolin-1-yl]-2,2-dimethyl-propyl]guanidine hydrochloride] | 246 to 250 |  |  |  | 
Cc1nc2c(N)nc3ccccc3c2n1CCCCNC(=N)N [Example 1, 1-[4-(4-amino-2-methyl-imidazo[4,5-c]quinolin-1-yl)butyl]guanidine dihydrochloride] |  | 1 | 0.001 |  | 
CCc1nc2c(N)nc3ccccc3c2n1CCCCNC(=N)N [Example 2, 1-[4-(4-amino-2-ethyl-imidazo[4,5-c]quinolin-1-yl)butyl]guanidine hydrochloride] |  | 0.1 | 0.1 | 0.1 | 
CCCc1nc2c(N)nc3ccccc3c2n1CCCCNC(=N)N [Example 3, 1-[4-(4-amino-2-propyl-imidazo[4,5-c]quinolin-1-yl)butyl]guanidine hydrochloride] |  | 0.1 | 0.1 |  | >10
CCCCc1nc2c(N)nc3ccccc3c2n1CCCCNC(=N)N [Example 4, 1-[4-(4-amino-2-butyl-imidazo[4,5-c]quinolin-1-yl)butyl]guanidine hydrochloride] |  | 0.01 | 0.01 | 0.01 | 0.1
CCCCc1nc2c(N)nc3ccccc3c2n1CCOCCNC(=N)N [Example 5, 1-[2-[2-(4-amino-2-butyl-imidazo[4,5-c]quinolin-1-yl)ethoxy]ethyl]guanidine dihydrochloride] |  | 0.01 | 0.001 | 0.001 | 0.01
COCCc1nc2c(N)nc3ccccc3c2n1CCOCCNC(=N)N [Example 6, 1-[2-[2-[4-amino-2-(2-methoxyethyl)imidazo[4,5-c]quinolin-1-yl]ethoxy]ethyl]guanidine dihydrochloride] |  | 0.01 | 0.01 | 0.01 | 0.01
CCCCCc1nc2c(N)nc3c(c2n1CCCCNC(=N)N)CCCC3 [Example 7, 1-[4-(4-amino-2-pentyl-6,7,8,9-tetrahydroimidazo[4,5-c]quinolin-1-yl)butyl]guanidine hydrochloride] |  | 1 | 1 | 0.1 | >10
COCCc1nc2c(N)nc3ccccc3c2n1CC(C)(C)CNC(=N)N [Example 8, 1-[3-[4-amino-2-(2-methoxyethyl)imidazo[4,5-c]quinolin-1-yl]-2,2-dimethyl-propyl]guanidine hydrochloride] |  | 0.1 | 0.1 | 0.01 | 0.1
CC(C)Cn1cnc2c(N)nc3ccccc3c21 [imiquimod, reference compound] |  | 10 | 10 | 10 | 10
